This is an account of results in patent US9394300B2, “Quinolone derivatives” (Cadila Healthcare Limited, priority 2012, dated 2016).

This assay concerns C57 Mice. Briefly: Estimating hemoglobin levels in mice. Particulars: oral once daily for 7 consecutive days at 20 mg/kg, whole blood on 8th day. In kind it is in vivo. How it is done:
(2) Protocol for Estimating Hemoglobin Levels in Mice
C57 mice were administered compounds of the present invention at 10 ml/kg by oral route daily once in the morning for 7 consecutive days at 20 mg/kg. On 8th day animals were bled by retro-orbital puncture under light ether anesthesia in microfuge tubes containing 2% EDTA (10 μl/100 μl of blood) for whole blood. Hemoglobin, Reticulocyte count and RBC count were measured using standard procedures.

Structures are written as SMILES.

In the case of `CC(C)[C@H](NC(=O)c1c(O)c2ccccc2n(OCC2CC2)c1=O)C(=O)O` [Example 55, (S)-2-(1-(cyclopropylmethoxy)-4-hydroxy-2-oxo-1,2-dihydroquinoline-3-carboxamido)-3-methylbutanoic acid], the “Hemoglobin (g/dL) 20 mg/kg compound” value is recorded as 13 g/dL.

Turning to `O=C(N[C@@H](Cc1ccccc1)C(=O)O)c1c(O)c2ccccc2n(OCC2CC2)c1=O` [Example 58, (S)-2-(1-(cyclopropylmethoxy)-4-hydroxy-2-oxo-1,2-dihydroquinoline-3-carboxamido)-3-phenylpropanoic acid], the “Hemoglobin (g/dL) 20 mg/kg compound” value is listed as 14 g/dL.

In the case of `CCC(CC)On1c(=O)c(C(=O)NCC(=O)O)c(O)c2ccccc21` [Example 38, 2-(4-hydroxy-2-oxo-1-(pentan-3-yloxy)-1,2-dihydroquinoline-3-carboxamido)acetic acid], the “Hemoglobin (g/dL) 20 mg/kg compound” value is on record as 15.8 g/dL.

For `CCCC(CCC)On1c(=O)c(C(=O)NCC(=O)O)c(O)c2ccccc21` [Example 77, 2-(1-(heptan-4-yloxy)-4-hydroxy-2-oxo-1,2-dihydroquinoline-3-carboxamido)acetic acid], the “Hemoglobin (g/dL) 20 mg/kg compound” value is listed as 15.5 g/dL.

As for `O=C(O)CNC(=O)c1c(O)c2ccccc2n(OCC/C=C/C2CC2)c1=O` [Example 76, 2-(1-((4-cyclopropylbut-3-en-1-yl)oxy)-4-hydroxy-2-oxo-1,2-dihydroquinoline-3-carboxamido)acetic acid], the “Hemoglobin (g/dL) 20 mg/kg compound” value is recorded as 17.1 g/dL.

As for `CC(C)(C)OC(=O)CNC(=O)c1c(O)c2ccccc2n(OCC2CC2)c1=O` [Example 49, tert-butyl-2-(1-(cyclopropylmethoxy)-4-hydroxy-2-oxo-1,2-dihydroquinoline-3-carboxamido)acetate], the “Hemoglobin (g/dL) 20 mg/kg compound” value is recorded as 14.1 g/dL.

`O=C(O)CNC(=O)c1c(O)c2ccncc2n(OCC2CC2)c1=O` [Example 70, 2-(1-(cyclopropylmethoxy)-4-hydroxy-2-oxo-1,2-dihydro-1,7-naphthyridine-3-carboxamido)acetic acid]: the “Hemoglobin (g/dL) 20 mg/kg compound” value is 13.9 g/dL.

Turning to `O=C(O)CNC(=O)c1c(O)c2ccccc2n(OCC(F)(F)F)c1=O` [Example 69, 2-(4-hydroxy-2-oxo-1-(2,2,2-trifluoroethoxy)-1,2-dihydroquinoline-3-carboxamido)acetic acid], the “Hemoglobin (g/dL) 20 mg/kg compound” value is 15.7 g/dL.

Consider `CC(C)C[C@H](NC(=O)c1c(O)c2ccccc2n(OCC2CC2)c1=O)C(=O)O` [Example 54, (S)-2-(1-(cyclopropylmethoxy)-4-hydroxy-2-oxo-1,2-dihydroquinoline-3-carboxamido)-4-methylpentanoic acid], for which the “Hemoglobin (g/dL) 20 mg/kg compound” value is recorded as 13.7 g/dL.

As to `CC(C)COn1c(=O)c(C(=O)NCC(=O)O)c(O)c2ccccc21` [Example 28, 2-(4-hydroxy-1-isobutoxy-2-oxo-1,2-dihydroquinoline-3-carboxamido)acetic acid], the “Hemoglobin (g/dL) 20 mg/kg compound” value is reported as 16.9 g/dL.

For `CCCOn1c(=O)c(C(=O)NCC(=O)O)c(O)c2scc(C)c21` [Example 40, 2-(7-hydroxy-3-methyl-5-oxo-4-propoxy-4,5-dihydrothieno[3,2-b]pyridine-6-carboxamido)acetic acid], the “Hemoglobin (g/dL) 20 mg/kg compound” value was 16.1 g/dL.

With `O=C(O)CNC(=O)c1c(O)c2sccc2n(OCC2CC2)c1=O` [Example 79, 2-(4-(cyclopropylmethoxy)-7-hydroxy-5-oxo-4,5-dihydrothieno[3,2-b]pyridine-6-carboxamido)acetic acid], the “Hemoglobin (g/dL) 20 mg/kg compound” value is 14.3 g/dL.

On to `C=CCOn1c(=O)c(C(=O)NCC(=O)O)c(O)c2cc(Oc3ccccc3)ccc21` [Example 8, 2-(1-(allyloxy)-4-hydroxy-2-oxo-6-phenoxy-1,2-dihydroquinoline-3-carboxamido)acetic acid], for which the “Hemoglobin (g/dL) 20 mg/kg compound” value is 15.8 g/dL.

With `C[C@H](NC(=O)c1c(O)c2ccccc2n(OCC2CC2)c1=O)C(=O)O` [Example 45, (S)-2-(1-(cyclopropylmethoxy)-4-hydroxy-2-oxo-1,2-dihydroquinoline-3-carboxamido)propanoic acid], the “Hemoglobin (g/dL) 20 mg/kg compound” value is 15.7 g/dL.
